The test system of one test is Escherichia coli strains. Format: cell-based. The following applies: isogenic pair of E. coli K-12 strains. As to the method: (§1) MICs were determined by microdilution susceptibility testing in 96-well plates (by Nunc) using inocula of 10^5 bacteria per ml. Cell populations were evaluated by optical density measurements at 620 nm and were calibrated against a set of standards. Hundred (100) μl of a bacterial suspension were added to 100 μl of culture medium (control) or to 100 μl of culture medium containing various polymer concentrations in 2-fold serial dilutions. Inhibition of proliferation was determined by optical density measurements at 620 nm after an incubation period of 24 hours at 37° C.

Test [1] concerns E. coli K-12 resistant wild type. Format: cell-based, Escherichia coli. Particulars: E. coli K-12 multi-resistant wild type.
Test [2] deals with E. coli K-12 efflux knockout mutant. The format is cell-based, Escherichia coli. The following applies: E. coli K-12 strain with decreased levels of efflux pumps. The method, then: as §1
For the next test, the system named is E. coli CI14213. Format: cell-based, Escherichia coli. Particulars: for MIC of polymer: CI14213; for re-sensitizing effect of polymer on oxacillin: E. coli CI14213, polymer well below MIC (up to ⅛ MIC), 24 hours. The method, then:
as §1

The next test relates to MRSA 15903. As to the kind of experiment: microbe, parasite or virus in culture. The format is cell-based, Staphylococcus aureus. The following applies: S. aureus CI-15903; +polymer (⅓ MIC) C12(5-ene)KKNC12KNH2. As to the method: The fractionary inhibitory (FIC) concentration index for combinations of two antimicrobial agents was calculated as follows: FIC index=FICA+FICB=A/MICA+B/MICB where A and B are the MIC values of agent A and agent B in the combination, MICA and MICB are the MICs of agent A and agent B alone, and FICA and FICB are the FICs of agent A and agent B.
The FIC indexes were interpreted as follows: less than 0.5 indicates a clear re-sensitizing effect; from 0.5 to 4 indicates a marginal or null re-sensitizing effect; and over 4 indicates antagonism.
Experimental data for FIG. 4 were obtained as follows.

Test [3] deals with E. coli N281 (L22 mutation). The format is cell-based, Escherichia coli. Particulars: E. coli N281; polymer alone.
In test [4] the test system is E. coli N282 (L4 mutation). Format: cell-based, Escherichia coli. The following applies: E. coli N282; polymer alone.

“And” between values parts separate entries of the source, which are not always exact repeats. Equal values may be shown once.

The results in this text go back to patent publication US20180153995A1, “USE OF ANTIMICROBIAL POLYMERS FOR RE-SENSITIZATION OF MICROORGANISMS UPON EMERGENCE OF RESISTANCE TO ANTI-MICROBIAL AGENTS” (Technion Research & Development Foundation Limited, priority 2008, published 2018).

As for `CCCCCCCCCCCC(=O)N[C@@H](CCCCN)C(=O)NCCCCCCCC(=O)N[C@@H](CCCCN)C(=O)NCCCCCCCC(=O)N[C@@H](CCCCN)C(=O)NCCCCCCCC(=O)N[C@@H](CCCCN)C(=O)NCCCCCCCC(=O)N[C@@H](CCCCN)C(=O)NCCCCCCCC(=O)N[C@@H](CCCCN)C(N)=O` [C12K(NC8K)5NH2], in the test with Escherichia coli strains, the MIC of polymer came to 3.125 µg/mL. Besides, in test [1], the “effect of polymer on antibiotics potency” value was “enhanced antibiotics potency”. The “effect of polymer on antibiotic MICs” value in test [2] is listed as “not altered significantly”. Further, in the test with E. coli CI14213, the MIC of polymer turned out to be 6.2 µM and the “re-sensitizing effect of polymer on oxacillin” value was “endowed potency to oxacillin”.

Consider `CCCCCCCCCCCC(=O)N[C@@H](CCCCN)C(=O)NCCCCCCCC(=O)N[C@@H](CCCCN)C(=O)NCCCCCCCC(=O)N[C@@H](CCCCN)C(=O)NCCCCCCCC(=O)N[C@@H](CCCCN)C(=O)NCCCCCCCC(=O)N[C@@H](CCCCN)C(=O)NCCCCCCCC(=O)N[C@@H](CCCCN)C(=O)NCCCCCCCC(=O)N[C@@H](CCCCN)C(=O)NCCCCCCCC(=O)N[C@@H](CCCCN)C(N)=O` [C12K(NC8K)7NH2], for which the MIC of polymer was 3.125 µg/mL in the test with Escherichia coli strains; 3.1 µM in test [3]; 1.6 µM and 3.1 µM in test [4]; 3.1 µM with E. coli CI14213. In the test with MRSA 15903, the MIC came to 12.5 µg/mL. Moreover, the “effect of polymer on antibiotics potency” value in test [1] was “enhanced antibiotics potency”. Further, the “effect of polymer on antibiotic MICs” value in test [2] is “not altered significantly”. For the same compound, the “re-sensitizing effect of polymer on oxacillin” value in the test on E. coli CI14213 was “endowed potency to oxacillin”.
